The source of these data is patent US20210144990A1, “IMPROVED ULTRA-FAST COOLING SYSTEM AND METHODS OF USE” (priority 2018, published 2021).

This data set has as its system corneal endothelial cells. Briefly: Post-thaw quality of pig corneal endothelium after ultra-fast cooling, with or without DMSO in DMEM. The format is cell-based. Particulars: pig corneal pieces cooled to -196 degrees C by liquid nitrogen blade jet, thawed under 37 degrees C water jet. The text has this: Small samples excised from pig corneas were cooled from room temperature (ambient) to −196 degrees C. using an ultra-fast cooling system of the present invention that contains a single liquid nitrogen blade jet and two gas nitrogen blade jets. Pig corneas were processed and cut into approx. 0.5 cm×0.5 cm×0.5 cm pieces, and each piece maintains a full layer of endothelium, i.e., a single layer of corneal endothelial cells of approximately 10 microns in size, on one surface. The tissues are first placed in standard holding media, Dulbecco's Modified Eagle Media (DMEM), at 4 degrees C. A sample holder was made with a holding cavity of 0.5 cm in depth and with a 20 microns thick sheet of stainless steel as its cover sheet. […] The corneal endothelium of each tissue faced to the cover sheet and directly contacted its inner surface, to achieve maximum cooling rate possibly provided by the liquid nitrogen jet for the endothelium and prevent exposure of the cells to liquid nitrogen flows. […] The post-thaw quality of the corneal endothelia was evaluated by quantification of endothelial cell number based on differential interference contrast light microscopy. The cell health was assessed by using cell circularity as a surrogate marker using differential interference contrast light microscopy. […]

On to `C[S+](C)[O-]` [DMSO, dimethyl sulfoxide], for which the “post-thaw endothelial cell viability (cell count vs fresh tissue, FIG. 19D)” value runs as follows: (10% DMSO in DMEM) “comparable to readings of the fresh corneas”; (20% DMSO in DMEM) “impacted the cell viability due to toxicity”.
